Test results published in ChEMBL document CHEMBL1133217, “Purpurinimides as photosensitizers: effect of the presence and position of the substituents in the in vivo photodynamic efficacy” (Bioorg Med Chem Lett, 2000).
Blank lines part the entries; values can stand above or below the molecule they belong to.

What was measured:
Mus musculus [1] = test: In vivo antitumor activity was determined after administration of compound (1.0 umol/kg) in mice bearing RIF tumors exposed to laser light (135 J/cm**2) on day 7; Tumor regrowth; type: functional, organism-based
Mus musculus [2] = test: In vivo antitumor activity was determined after administration of compound (1.0 umol/kg) in mice bearing RIF tumors exposed to laser light (135 J/cm**2) on day 1-2; type: functional
[3] = Partition coefficient (logP); type: physicochemical; conditions: octanol/water
Mus musculus [4] = test: In vivo antitumor activity was determined after administration of compound (1.0 umol/kg) in mice bearing RIF tumors exposed to laser light (135 J/cm**2) on day 1-2; No rseponse; type: functional, organism-based
Mus musculus [5] = test: In vivo antitumor activity was determined after administration of compound (1.0 umol/kg) in mice bearing RIF tumors exposed to laser light (135 J/cm**2) on day 7; No rseponse; type: functional, organism-based
Mus musculus [6] = test: In vivo antitumor activity was determined after administration of compound (1.0 umol/kg) in mice bearing RIF tumors exposed to laser light (135 J/cm**2) on day 14; No rseponse; type: functional, organism-based
Mus musculus [7] = test: In vivo antitumor activity was determined after administration of compound (1.0 umol/kg) in mice bearing RIF tumors exposed to laser light (135 J/cm**2) on day 21; No rseponse; type: functional, organism-based
Mus musculus [8] = test: In vivo antitumor activity was determined after administration of compound (1.0 umol/kg) in mice bearing RIF tumors exposed to laser light (135 J/cm**2) on day 30; No rseponse; type: functional, organism-based
Mus musculus [9] = test: In vivo antitumor activity was determined after administration of compound (1.0 umol/kg) in mice bearing RIF tumors exposed to laser light (135 J/cm**2) on day 14; type: functional
Mus musculus [10] = test: In vivo antitumor activity was determined after administration of compound (1.0 umol/kg) in mice bearing RIF tumors exposed to laser light (135 J/cm**2) on day 21; type: functional
Mus musculus [11] = test: In vivo antitumor activity was determined after administration of compound (1.0 umol/kg) in mice bearing RIF tumors exposed to laser light (135 J/cm**2) on day 7; type: functional
Mus musculus [12] = test: In vivo antitumor activity was determined after administration of compound (1.0 umol/kg) in mice bearing RIF tumors exposed to laser light (135 J/cm**2) on day 30; type: functional

Compound: CCCCCCCCCCN1C(=O)c2c3nc(cc4nc(cc5[nH]c(cc6[nH]c2c(c6C)C1=O)c(CC)c5C)C(CC)=C4C)[C@@H](C)[C@@H]3CCC(=O)OC
Tumor cure (Mus musculus [1]): Tumour regrowth
Tumor cure (Mus musculus [2]): 100%
logP [3]: 10.62

Compound: CCCCCCCOC(C)c1c(C)c2cc3[nH]c(cc4nc(c5c6nc(cc1[nH]2)C(C)=C6C(=O)N(CCCCCC)C5=O)[C@@H](CCC(=O)OC)[C@@H]4C)c(C)c3CC (some centres not stated)
Tumor cure (Mus musculus [4]): No response
Tumor cure (Mus musculus [5]): No response
Tumor cure (Mus musculus [6]): No response
Tumor cure (Mus musculus [7]): No response
Tumor cure (Mus musculus [8]): No response
logP [3]: 10.83

Compound: CCCCCCCOCc1c2nc(c3c4nc(cc5[nH]c(cc6[nH]c1c(C)c6CC)c(C)c5CC)C(C)=C4C(=O)N(CCCCCC)C3=O)[C@@H](CCC(=O)OC)[C@@H]2C
Tumor cure (Mus musculus [2]): 50%
Tumor cure (Mus musculus [9]): 50%
Tumor cure (Mus musculus [10]): 50%
Tumor cure (Mus musculus [11]): 50%
Tumor cure (Mus musculus [12]): 50%
logP [3]: 10.78

More lines, main results first:

logP [3]: 10.83
Compound: CCCCCCCOC(C)C1=C(C)c2cc3nc(c4c5[nH]c(cc6[nH]c(cc1n2)c(C)c6CC)c(C)c5C(=O)N(CCCCCC)C4=O)[C@@H](CCC(=O)OC)[C@@H]3C (some centres not stated)
Tumor cure (Mus musculus [2]): 100%
Tumor cure (Mus musculus [9]): 100%
Tumor cure (Mus musculus [10]): 100%
Tumor cure (Mus musculus [11]): 100%
Tumor cure (Mus musculus [12]): 100%

logP [3]: 10.8
Compound: CCCCCCCCOCC1=C(C)c2cc3nc(c4c5[nH]c(cc6[nH]c(cc1n2)c(C)c6CC)c(C)c5C(=O)N(CCCCCC)C4=O)[C@@H](CCC(=O)OC)[C@@H]3C
Tumor cure (Mus musculus [4]): No response
Tumor cure (Mus musculus [5]): No response
Tumor cure (Mus musculus [6]): No response
Tumor cure (Mus musculus [7]): No response
Tumor cure (Mus musculus [8]): No response
